Laboratory results published in patent US20260306460A1, “COMPOSITION FOR REMOVING AND INHIBITING SENESCENT CELLS, AND USES THEREOF” (LIFECEUTIX CO., LTD., priority 2023, published 2026).

Legend:
[1] = system: HMGN1 secreted from senescent cells; test: HMGN1 secretion (ELISA) from doxorubicin-induced senescent cells, Example 17; format: cell-based, human; conditions: senescent untreated = 100%; 30 μM; 90 μM for LX-5211, 5433, 6530, 9105, 9118, 9321, 9602; 2.4 mM for LX-9336
[2] = system: HMGN1 secreted from senescent A549 cells; test: HMGN1 secretion (ELISA) from senescent A549 cells, Example 18, Table 14; format: cell-based, human; conditions: doxorubicin-senescent A549, without test compound (DMSO) = 100%; 30 μM (LX-5211, LX-5433, LX-6530, LX-6800, LX-9105, LX-9118, LX-9131, LX-9136, LX-9302, LX-9321, LX-9565, LX-9602 at 90 μM; LX-9336 at 2.4 mM)
Experimental: On the other hand, in cancer cells treated with doxorubicin, where senescence was induced, the amount of HMGN1 measured under conditions where cells were not treated with the test compound was calculated as 100%, and the amount of HMGN1 was measured under conditions where the senescent cancer cells were treated with the test compound.

[3] = system: bleomycin-induced pulmonary fibrosis mice; test: Bleomycin-induced pulmonary fibrosis mice, Example 31, Table 56; format: in vivo, mouse; conditions: untreated = 100%
Procedure, shortened: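 After treatment with test compound or vehicle alone, lungs of bleomycin-induced pulmonary fibrosis mice were harvested. Total RNA extracted and gene expression quantified by qRT-PCR.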

senescent A549 cells = test: Viability of senescent A549 cells (CellTiter-Glo), Example 18, Table 15; conditions: doxorubicin-induced senescent A549 cells, 0 μM = 100%
Experimental: Senescence-induced cancer cells treated with doxorubicin were treated with the test compound at designated concentrations, and cell viability was measured using the CellTiter-Glo Luminescent Cell Viability Assay (Promega).

[4] = system: carbon tetrachloride-induced liver fibrosis mice; test: Carbon tetrachloride-induced liver fibrosis mice, Example 31, Table 57; format: in vivo, mouse; conditions: CCl4-induced liver fibrosis mice, untreated = 100%
Procedure, shortened: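 Mice with induced hepatic fibrosis received either the test compound or, as controls, an equal volume of vehicle solution alone. Once dosing ended, liver tissue was harvested and total RNA was isolated. cDNA was synthesized from this RNA, and quantitative RT-PCR was run on it to measure hepatic mRNA levels of the fibrosis- and senescence-related genes.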

naturally aged mice = test: Anti-aging evaluation in naturally aged mice, Example 31, Table 55; format: in vivo, mouse; conditions: for Femur Ctsk mRNA / Kidney Agtr1a mRNA / Liver IL6 mRNA / Liver MMP3 mRNA / Liver p16 mRNA / Open Field Test Time in Center: untreated = 100%; for Heart Sur2a mRNA / Joint Col2a1 mRNA / Skin Col1a1 mRNA / Skin SDF1 mRNA: untreated = 1.0; for Muscle Mass: untreated 0.64 g; for Fat Mass: untreated 0.82 g; for Cataract incidence: untreated 83%;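 as to all read-outs here: Vehicle-dosed control mice received solution alone at matching volume, values compare test-compound-treated aged mice against that control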
Experimental: After the end of drug administration, the method described in each example below was performed. […] The mRNA amounts of p16, MMP3, and IL6 after natural aging was induced were calculated as 100% and compared with the mRNA amounts of p16, MMP3, and IL6 after treatment with the test compound. In addition, an open field test for the analysis of aging-related frailty, agtr1a mRNA analysis for kidney damage and disease evaluation, col1a1 and SDF1 mRNA analysis for skin aging evaluation such as wrinkles/loss of elasticity/hyperpigmentation, col2a1 mRNA analysis for evaluating joint aging such as osteoarthritis, sur2a mRNA analysis for evaluating cardiac aging such as decreased cardiac load resistance, ctsk mRNA analysis for evaluating bone diseases due to aging such as osteoporosis, muscle tissue weight for analyzing sarcopenia, fat tissue weight for analyzing lipoatrophy, and cataract incidence analysis were performed in mice. For cataract incidence analysis, the drug was administered twice a week under the conditions specified above, and biweekly examinations were conducted until death.

senescent cells = test: Viability of senescent cells (CellTiter-Glo), Example 17, Table 13; conditions: doxorubicin-induced senescent cells, 0 μM = 100
Experimental: Cells induced to undergo senescence by doxorubicin treatment were treated with test compound at designated concentrations and measured using the CellTiter-Glo Luminescent Cell Viability Assay (Promega).

[5] = system: naturally aged C57BL6J mice; test: Geriatric depression and anxiety in aged mice, Example 21-8; format: in vivo, mouse; conditions: aged mice
Description: The amount of senescent-associated secretory factor (SASP) in serum and tissues collected from mice of Examples 21-5 and 21-6 was reduced by treatment with LX-5701, LX-2101, or LX-2102. It was confirmed that removing senescent cells, which increase with aging in mice, and effectively reducing the amount of senescent-associated secretory factor (SASP) can improve symptoms of geriatric depression and anxiety.

[6] = system: obesity-induced aged C57BL6J mice; test: Anxiety, depression, lethargy (open field test) in obesity-aged mice, Example 23-4, Table 44; format: in vivo, mouse; conditions: obesity-aged mice
Experimental: 15-week-old male C57BL6J mice (The Jackson Laboratory) were induced to obesity by a high-fat diet using the same method as in Example 9-1 WO2023-085787 A1. After acclimation to the experimental environment for one week, the mice were randomly assigned to experimental and control groups. […] LX-3002 was mixed in distilled water with 4% DMSO, 30% PEG300, and 5% Tween80 and administered orally at a concentration of 10 mg/kg daily for 21 days. LX-5701 was mixed in PBS and administered orally at a concentration of 360 mg/kg daily for 21 days. LX-6807 was mixed in saline and administered intraperitoneally at a concentration of 1 mg/kg daily for 21 days. The control group received only the solution in the same volume. After the end of drug administration, the methods described in each example below were performed.
It was determined that anxiety and depression caused by obesity are not causally related to increased body weight, but rather are caused by the accumulation of senescent cells. Accordingly, an activity assessment (open field test) was performed using the same method as in Example 7-7 of WO2023-085787 A1 to analyze lethargy caused by anxiety and depression caused by obesity in mice. The table below quantitatively represents activity, a criterion for assessing lethargy due to anxiety and depression, under conditions in which aging was induced by obesity and the test compound was not administered or was administered. The activity assessment after obesity-induced aging was calculated as 100% and compared with the activity assessment after test compound treatment.

[7] = MST; described in WO2021183908A1; cited from earlier work

| Compound | HMGN1 [1] | HMGN1 [2] | Survival (%) (senescent A549 cells; 1.1 μM) | Survival (%) (senescent A549 cells; 10 μM) | Survival (%) (senescent A549 cells; […]) | Survival (%) (senescent cells; 1.1 μM) | Survival (%) (senescent cells; 10 μM) | Survival (%) (senescent cells; 30 μM) | Survival (%) (senescent cells; […]) | Survival (%) (senescent A549 cells; 30 μM) | Kd [7] | other results |
| --- | --- | --- | --- | --- | --- | --- | --- | --- | --- | --- | --- | --- |
| COC[C@]1(CO)C(=O)[C@H]2CC[N@]1[C@H](C)C2 [LX-5731, (1R,2R,4S,6R)-2-(hydroxymethyl)-2-(methoxymethyl)-6-methylquinuclidin-3-one] | 235% | 307% | 94.4% | 30.6% | 83.1% | 98.8% | 48.2% | 11.7% | 89.8% |  |  | Lung p16 mRNA [3]: 69 (±3.7) %; Col1a1 mRNA [3]: 62 (±13.8) %; Liver p16 mRNA [4]: 60 (±6.5) %; Col1a1 mRNA [4]: 64 (±10.4) %; Femur Ctsk mRNA (naturally aged mice): 44%; Heart Sur2a mRNA (naturally aged mice): 2.5 fold; Joint Col2a1 mRNA (naturally aged mice): 2.7 fold; Kidney Agtr1a mRNA (naturally aged mice): 49%; Liver IL6 mRNA (naturally aged mice): 42%; Liver MMP3 mRNA (naturally aged mice): 77%; Liver p16 mRNA (naturally aged mice): 58%; Open Field Test Time in Center (naturally aged mice): 237%; Skin Col1a1 mRNA (naturally aged mice): 2.3 Fold; Skin SDF1 mRNA (naturally aged mice): 2.0 fold; Muscle Mass (naturally aged mice): 0.71 g; Fat Mass (naturally aged mice): 1.01 g; Cataract incidence (naturally aged mice): 72% |
| CCNCc1nc2c(O)c(Cl)cc(Cl)c2c(=O)n1C [LX-9421] | 201% | 284% | 102.9% | 62.3% | 83.3% | 92.1% | 67.9% | 25.9% | 89.3% | 20.7% |  | Lung p16 mRNA [3]: 35 (±1.6) %; Col1a1 mRNA [3]: 40 (±2.0) %; Liver p16 mRNA [4]: 59 (±5.4) %; Col1a1 mRNA [4]: 34 (±3.7) %; Femur Ctsk mRNA (naturally aged mice): 44%; Heart Sur2a mRNA (naturally aged mice): 2.1 fold; Joint Col2a1 mRNA (naturally aged mice): 2.8 fold; Kidney Agtr1a mRNA (naturally aged mice): 46%; Liver IL6 mRNA (naturally aged mice): 41%; Liver MMP3 mRNA (naturally aged mice): 32%; Liver p16 mRNA (naturally aged mice): 57%; Open Field Test Time in Center (naturally aged mice): 222%; Skin Col1a1 mRNA (naturally aged mice): 2.3 Fold; Skin SDF1 mRNA (naturally aged mice): 2.6 fold; Muscle Mass (naturally aged mice): 0.78 g; Fat Mass (naturally aged mice): 0.99 g; Cataract incidence (naturally aged mice): 54% |
| CN(CCOc1ccc(CC2SC(=O)NC2=O)cc1)c1ccccn1 (stereo not shown) [LX-9423, Rosiglitazone] | 227% | 239% | 82.1% | 39.8% | 78.3% | 79.5% | 25.4% | 8.7% | 71.8% | 3.0% |  | amount of SASP, p16, SA-β-gal, lipofuscin [5]: reduced; symptoms of geriatric depression and anxiety [5]: improved; geriatric depression [6]: similarly improving geriatric depression |
| CC(C)(C)OC(=O)CCN1C(=O)c2ccccc2C1=O [QW-011] |  |  |  |  |  |  |  |  |  |  | 926 nM |  |
| CC(C)OC(=O)CCCN1C(=O)c2ccccc2C1=O [QW-017] |  |  |  |  |  |  |  |  |  |  | 399 nM |  |
| CC(C)(C)OC(=O)C(C)(C)N1C(=O)c2ccccc2C1=O [QW-020] |  |  |  |  |  |  |  |  |  |  | 2140 nM |  |
| CC(C(=O)OC(C)(C)C)N1C(=O)c2ccccc2C1=O (stereo not shown) [QW-023] |  |  |  |  |  |  |  |  |  |  | 1780 nM |  |
| CC(C)(C)OC(=O)CCCCCN1C(=O)c2ccccc2C1=O [QW-029] |  |  |  |  |  |  |  |  |  |  | 2100 nM |  |
| CC(C)(C)OC(=O)C(N1C(=O)c2ccccc2C1=O)C(C)(C)C (stereo not shown) [QW-034] |  |  |  |  |  |  |  |  |  |  | 979 nM |  |
| CCC(C)C(C(=O)OC(C)(C)C)N1C(=O)c2ccccc2C1=O (stereo not shown) [QW-050] |  |  |  |  |  |  |  |  |  |  | 2430 nM |  |
| Batiraxcept [LX-6982] | 234% | 306% | 90.9% | 77.8% | 88.9% | 95.1% | 74.6% | 10.5% | 86.8% | 6.9% |  |  |
| Farletuzumab [LX-7621] | 304% | 237% | 91.5% | 69.7% | 78.4% | 86.3% | 78.2% | 50.2% | 82.1% | 14.4% |  |  |
| Sulforadex [LX-7104] | 287% | 246% | 103.3% | 58.7% | 81.2% | 88.5% | 45.7% | 2.8% | 75.7% | 18.1% |  |  |
